Results on one compound are retold here after patent US8940913B2, “Herbicides” (Syngenta Crop Protection, LLC, priority 2007, dated 2015).

The pest or weed control is how far the test organism was held down.

Common to all, as to format: in vivo
Assay [1] concerns Setaria faberi (SETFA). As to the kind of experiment: Pre-emergence herbicidal activity, glasshouse pot test. As to conditions: 480 h, rate 250 g/ha, evaluated 20 days later, 100=total damage to plant, 0=no damage to plant. In outline: (§1)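 Pot test, glasshouse: sow in standard soil; spray day 1 (pre-em.) or day 10 (post-em.); aqueous spray from acetone solution + formulation (10.6% Emulsogen EL, 42.2% NMP, 42.2% DPGME, 0.2% X-77); score 0–100 at 20 d pre / 15 d post.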

Assay [2] has as its system Alopecurus myosuroides (ALOMY). The description is as above. The note with it: 480 h, rate 250 g/ha, evaluated 20 days later, 100=total damage to plant, 0=no damage to plant. In outline: as §1
The subject of assay [3] is Digitaria sanguinalis (DIGSA). The assay is described as above. The note with it: 480 h, rate 250 g/ha, evaluated 20 days later, 100=total damage to plant, 0=no damage to plant. In outline:
as §1

The subject of assay [4] is Lolium perenne (LOLPE). Described as above. As to conditions: 480 h, rate 250 g/ha, evaluated 20 days later, 100=total damage to plant, 0=no damage to plant. In outline:
as §1

The test system of assay [5] is Avena fatua (AVEFA). Described as above. As to conditions: 480 h, rate 250 g/ha, evaluated 20 days later, 100=total damage to plant, 0=no damage to plant. In outline:
as §1

Assay [6] deals with Echinochloa crus-galli (ECHCG). The assay is described as above. As to conditions: 480 h, rate 250 g/ha, evaluated 20 days later, 100=total damage to plant, 0=no damage to plant. In outline: as §1
Assay [7] concerns Setaria faberi (SETFA). The assay can be described thus: Post-emergence herbicidal activity, glasshouse pot test. As to conditions: 360 h, rate 125 g/ha, evaluated 15 days later, 100=total damage to plant, 0=no damage to plant. In outline: as §1
Assay [8] deals with Alopecurus myosuroides (ALOMY). Described as above. As to conditions: 360 h, rate 125 g/ha, evaluated 15 days later, 100=total damage to plant, 0=no damage to plant. In outline: as §1
Assay [9] concerns Digitaria sanguinalis (DIGSA). The assay is described as above. As to conditions: 360 h, rate 125 g/ha, evaluated 15 days later, 100=total damage to plant, 0=no damage to plant. In outline: as §1
In assay [10] the test system is Lolium perenne (LOLPE). The assay is described as above. The note with it: 360 h, rate 125 g/ha, evaluated 15 days later, 100=total damage to plant, 0=no damage to plant. In outline: as §1
Assay [11] concerns Avena fatua (AVEFA). The description is as above. As to conditions: 360 h, rate 125 g/ha, evaluated 15 days later, 100=total damage to plant, 0=no damage to plant. In outline:
as §1

In assay [12] the test system is Echinochloa crus-galli (ECHCG). The assay is described as above. The note with it: 360 h, rate 125 g/ha, evaluated 15 days later, 100=total damage to plant, 0=no damage to plant. In outline: as §1

With `Cc1cc(-c2ccccc2)cc(C)c1C1=C(OC(=O)C(C)(C)C)[C@H]2[C@@H](C1=O)[C@]1(C)CC[C@@]2(C)O1` [Compound P5], the pest or weed control at 250 g/ha came to 100% in the assay with Setaria faberi (SETFA) [1]; 100% in assay [2]; 100% in [3]; 70% in the assay on Lolium perenne (LOLPE) [4]; 0% in the assay on Avena fatua (AVEFA) [5]; 70% in assay [6]. Moreover, the pest or weed control at 125 g/ha with Setaria faberi (SETFA) [7] was found to be 90%; in assay [8] it was 70%; in [9] it was 100%; with Lolium perenne (LOLPE) [10] it was 40%; with Avena fatua (AVEFA) [11] it was 20%; in [12], 100%.
